Source: US9199978B2, “Acrylamide compounds and use thereof for inhibiting apoptosis” (CHINESE PLA GENERAL HOSPITAL, priority 2010, dated 2015)

What was measured:
Type in all cases: cell-based, Wistar sucking mice
[1] = test system: cardiomyocyte apoptosis induced by anoxia; experiment: Protection against anoxia-induced cardiomyocyte apoptosis (HCS fluorescence staining); details: for Nucleus area (%): Hoechst staining; for Mitochondrial transmembrane potential: MitoTracker Red
Description: (§1) The isolation and culture of cardiomyocytes were performed by referring to the differential adhesion method (Kreider, A. Messing, H. Doan, S. U. Kim, R. P. Lisak and D. E. Pleasure, Enrichment of Schwann cell cultures from neonatal rat sciatic nerve by differential adhesion, Brain Res 2 (1981), pp. 433-444). Wistar sucking mice newborn within 24 h were used, sterilized at skin of ventrum with iodine tincture and ethanol, subjected to thoracotomy using scissors at subxiphoid median line with a deviation to left, heart was taken out after slant thoracotomy and placed in PBS precooled with ice; the heart was softly blown and beaten with 0.01 M PBS to remove blood cells and other tissues, then cut into pieces with 0.5 mm^3 size, washed with 0.01 M PBS repeatedly for 2-3 times; the pieces were placed in conical flask, added with 4 ml of 0.125% pancretin, 1 ml of 0.1% collagenase II (final concentrations separately being 0.1% and 0.02%), shaken in 37° C. water bath for 10 min, the supernatant was discarded; then 4 ml of 0.125% pancretin and 1 ml of 0.1% collagenase II again, shaken in 37° C. water bath for digestion for 10 min, the supernatant was sucked and transferred to a centrifuge tube, and the supernatant was added with DMEM containing 10% FBS to terminate digestion; the step of shaking and digestion in water bath was repeated for 3-4 times, until the tissue pieces were completely digested; the collected cell suspension was centrifuged under 1000 rpm for 10 min, the supernatant was removed, then a culture medium was added for resuspension; the resuspended cells were inoculated in a cell culture flask, placed in CO2 incubator at 37° C. for incubation for 1.5 h, then the culture medium was sucked out, countered under microscope, then DMEM culture medium containing 10% FBS was used to adjust cell density, inoculated in an amount of 1×10^4 to a 96-well plate, placed in 5% CO2 incubator at 37° C. for 24 h, then half medium was replaced, a culture medium containing 0.1% Brdu was supplementally added; then the medium was replaced once per 48 h, and primary cardiomyocytes were obtained after 4 days of cultivation.
Cardiomyocyte was obtained by primary culture according to Example 18, cell density 10^4/mL, each wall was added with 100 μL of suspension of the cells. The cells were incubated at 37° C., 5% CO2 environment for 96 h (replacing solution once per 48 h). After primary culture for 4 days, cell apoptosis was induced by placing in an anoxia incubator, the compounds of the present invention at different concentrations were added for pretreatment 30 min before inducing cell apoptosis, then placed in 37° C., 5% CO2-95% N2 incubator and cultured for 15.5 h. It was 30 min before the compound incubation finished, 50 μL of culture medium, 50 μL of Mitotracker/Hoechst solution, were added, and the cells were then continuously cultured at 37° C., 5% CO2-95% N2 for 30 min.
Each well was directly added with 100 μL of fixing solution, without sucking out the culture medium, incubated at room temperature in fume cupboard for 10 min. The pre-heated fixing solution was very important for keeping cell integrity.
The solution of each well was sucked out (the plate could be turned over), washed with 1× Wash Buffer (100 μL/well) once. Carefulness was kept during operation and washing procedure to maintain cell adhesion and integrity. Good results could be obtained by slowly sucking and releasing liquid. Wash Buffer was sucked out, 1× penetrating membrane solution (100 uL/well) was added, incubated at room temperature for 15 min. The penetrating membrane solution was sucked out, each well was washed once with 100 μL/well of 1× Wash Buffer. The Wash Buffer was sucked out, each well was added with 50 μL of Alexa Fluor 488 Phalloidin Solution, incubated at room temperature in dark for 30 min. The Alexa Fluor 488 Phalloidin solution was sucked out, washed with 1× Wash Buffer for three times, and the solution of the last time was kept in the well. […]

cardiomyocytes = experiment: Measurement of cell inhibition rate (MTT) on normal primary cardiomyocytes; details: 48 h; for Inhibition rate (%) of cardiomyocytes: 300 μM; for inhibition at 300 µM: Cardiomyocyte
Description: as §1
The isolated primary culture of cardiomyocytes was inoculated in an amount of 10^4 cells per well to a 96-well plate, and the volume of each well was 100 μl (marginal wells were filled with sterile PBS). […] After continuous inoculation for 48 h, each well was added with 20 μl of MTT solution (5 mg/ml, formulated with PBS (pH=7.4), i.e., 0.5% MTT), and the cultivation was continued for 4 h. After the end of cultivation, culture medium in wells was carefully sucked out. Each well was added with 150 μl of DMSO, shaken at a low speed in a shaking table for 10 min, so that the crystal was sufficiently dissolved. The optical density (OD) value of each well was measured at wavelength of 550 nm by enzyme-linked immunoassay instrument, and each well was repeatedly measured for 5 times and the results were recorded.

[2] = test system: TG-induced cardiomyocytes apoptosis; experiment: Protection against TG-induced cardiomyocyte apoptosis (MTT)
Description: as §1
The isolated primary culture of cardiomyocytes was inoculated in an amount of 10^4 cells per well to a 96-well plate, and the volume of each well was 100 μl (marginal wells were filled with sterile PBS). After being cultivated in 5% CO2 and 37° C. incubator for 4 d, they were added with the compound of Formula I at different concentrations (0.3 μM, 1 μM, 3 μM, 10 μM, 30 μM, 100 μM), 3 double-wells were set for each concentration, at the same time, zero setting wells (culture medium, MTT, DMSO), and control wells (culture medium, DMSO) were also set. After continuous inoculation for 48 h, each well was added with 20 μl of MTT solution (5 mg/ml, formulated with PBS (pH=7.4), i.e., 0.5% MTT), and the cultivation was continued for 4 h. After the end of cultivation, culture medium in wells was carefully sucked out. Each well was added with 150 μl of DMSO, shaken at a low speed in a shaking table for 10 min, so that the crystal was sufficiently dissolved. The optical density (OD) value of each well was measured at wavelength of 550 nm by enzyme-linked immunoassay instrument, and each well was repeatedly measured for 5 times and the results were recorded.
Cardiomyocytes were subjected to the primary culture for 4 days according to the above method, and then added with thapsigargin (TG) to induce apoptosis. The compound of the present invention was added for pretreatment 30 min before inducing apoptosis. […] TG was formulated with DMSO, the mother liquid was of 4 mM; and the compound of the present invention was formulated with DMSO, and the mother liquid was of 150 mM. The cell survival rate was measured according to the above MTT method, so as to test the protection effects of the compound of the present invention on the TG-induced cardiomyocytes apoptosis, and the results are shown in Table 2. […]

[3] = compound 0.3 μM + TG 0.4 uM, pretreatment 30 min
[4] = compound 1 μM + TG 0.4 uM, pretreatment 30 min
[5] = compound 3 μM + TG 0.4 uM, pretreatment 30 min
[6] = compound 10 μM + TG 0.4 uM, pretreatment 30 min

(2E)-3-(2-thienyl)-N-[1-(1-morpholinyl)thioformyl amino-2,2,2-trichloroethyl]-2-acrylamide [Example 12]
Nucleus area (%) ([1]; 10 μM): 102.93 ± 5.12%
Mitochondrial transmembrane potential ([1]; 10 μM): 133.11 ± 6.30
Inhibition rate (%) of cardiomyocytes (cardiomyocytes): 10.44 ± 5.66%
Survival rate (%) of Cardiomyocyte [2, 3]: 79 ± 7%
Survival rate (%) of Cardiomyocyte [2, 4]: 80 ± 9%
Survival rate (%) of Cardiomyocyte [2, 5]: 83 ± 11%

O=C(/C=C/c1cccs1)NC(NC(=S)NCc1ccccc1)C(Cl)(Cl)Cl (stereo not drawn) [Example 5, (2E)-3-(2-thienyl)-N-(1-benzylaminothioformylamino-2,2,2-trichloroethyl)-2-acrylamide]
light flux ([1]; 0.3 μM): 1331.12 ± 53.30
Nucleus area (%) ([1]; 0.3 μM): 120.23 ± 5.49%
Mitochondrial transmembrane potential ([1]; 0.3 μM): 117.76 ± 1.87
inhibition at 300 µM (cardiomyocytes): 0.76 ± 4.04%
Survival rate (%) of Cardiomyocyte [2, 3]: 82 ± 4%
Survival rate (%) of Cardiomyocyte [2, 4]: 76 ± 8%
Survival rate (%) of Cardiomyocyte [2, 5]: 74 ± 9%

CS/C(=N\C(NC(=O)/C=C/c1cccs1)C(Cl)(Cl)Cl)Nc1cccc2cccnc12 (stereo not drawn) [Example 14, (2E)-3-(2-thienyl)-N-[1-(8-quinolylamino)methylthiomethenylamino-2,2,2-trichloroethyl]-2-acrylamide]
inhibition at 300 µM (cardiomyocytes): 8.34 ± 5.78%

C/C=C(/C)C(=O)O[C@H]1C(C)=C2[C@H]([C@@H]1OC(=O)CCCCCCC)[C@@](C)(OC(C)=O)C[C@H](OC(=O)CCC)[C@@]1(O)[C@H]2OC(=O)[C@@]1(C)O [TG, thapsigargin, reference compound]
Survival rate (%) of Cardiomyocyte ([2]; TG alone 0.4 uM (apoptosis inducer)): 59 ± 1.1%

O=C(/C=C/c1cccs1)NC(NC(=S)Nc1ccccc1F)C(Cl)(Cl)Cl (stereo not drawn) [Example 8, (2E)-3-(2-thienyl)-N-[1-(2-fluoroanilino)thioformylamino-2,2,2-trichloroethyl]-2-acrylamide]
inhibition at 300 µM (cardiomyocytes): 6.82 ± 1.21%

(2E)-3-(2-thienyl)-N-[1-(4-methylpiperazinyl)thioformylamino-2,2,2-trichloroethyl]-2-acrylamide [Example 13]
Mitochondrial transmembrane potential ([1]; 3 μM): 116.41 ± 0.64
Inhibition rate (%) of cardiomyocytes (cardiomyocytes): 1.66 ± 2.70%
Survival rate (%) of Cardiomyocyte [2, 3]: 72 ± 3%
Survival rate (%) of Cardiomyocyte [2, 4]: 71 ± 3%
Survival rate (%) of Cardiomyocyte [2, 5]: 67 ± 3%

CC(C)NC(=S)NC(NC(=O)/C=C/c1cccs1)C(Cl)(Cl)Cl (stereo not drawn) [Example 7, (2E)-3-(2-thienyl)-N-[1-isopropylaminothioformylamino-2,2,2-trichloroethyl]-2-acrylamide]
inhibition at 300 µM (cardiomyocytes): 1.32 ± 3.42%
Survival rate (%) of Cardiomyocyte [2, 4]: 69 ± 5%
Survival rate (%) of Cardiomyocyte [2, 5]: 70 ± 8%
Survival rate (%) of Cardiomyocyte [2, 6]: 77 ± 11%

O=C(/C=C/c1cccs1)NC(NC(=S)NC1CCCCCC1)C(Cl)(Cl)Cl (stereo not drawn) [Example 11, (2E)-3-(2-thienyl)-N-(1-cycloheptylaminothioformylamino-2,2,2-trichloroethyl)-2-acrylamide]
inhibition at 300 µM (cardiomyocytes): 7.62 ± 5.77%

CC(C)OCCCNC(=S)NC(NC(=O)/C=C/c1cccs1)C(Cl)(Cl)Cl (stereo not drawn) [Example 9, (2E)-3-(2-thienyl)-N-[1-(3-isopropoxypropylamino)thioformylamino-2,2,2-trichloroethyl]-2-acrylamide]
inhibition at 300 µM (cardiomyocytes): 5.3 ± 0.95%

COC(=O)c1ccccc1NC(=S)NC(NC(=O)/C=C/c1cccs1)C(Cl)(Cl)Cl (stereo not drawn) [Example 10, (2E)-3-(2-thienyl)-N-[1-(2-methoxyformylanilino)thioformylamino-2,2,2-trichloroethyl]-2-acrylamide]
inhibition at 300 µM (cardiomyocytes): 3.24 ± 1.7%

COc1ccccc1NC(=S)NC(NC(=O)/C=C/c1cccs1)C(Cl)(Cl)Cl (stereo not drawn) [Example 4, (2E)-3-(2-thienyl)-N-[1-(2-methoxyanilino)thioformylamino-2,2,2-trichloroethyl]-2-acrylamide]
inhibition at 300 µM (cardiomyocytes): 5.55 ± 2.29%

O=C(/C=C/c1cccs1)NC(NC(=S)NC1CCCCC1)C(Cl)(Cl)Cl (stereo not drawn) [Example 6, (2E)-3-(2-thienyl)-N-(1-cyclohexylaminothio formylamino-2,2,2-trichloroethyl)-2-acrylamide]
light flux ([1]; 1 μM): 1077.08 ± 55.63
Nucleus area (%) ([1]; 1 μM): 100.00 ± 4.63%
Mitochondrial transmembrane potential ([1]; 1 μM): 112.92 ± 0.82
inhibition at 300 µM (cardiomyocytes): 5.54 ± 3.61%
Survival rate (%) of Cardiomyocyte [2, 4]: 76 ± 7%
Survival rate (%) of Cardiomyocyte [2, 5]: 70 ± 6%
Survival rate (%) of Cardiomyocyte [2, 6]: 78 ± 9%

O=C(/C=C/c1cccs1)NC(NC(=S)Nc1cccc2cccnc12)C(Cl)(Cl)Cl (stereo not drawn) [Example 1, (2E)-3-(2-thienyl)-N-[1-(8-quinolylamino)thioformylamino-2,2,2-trichloroethyl]-2-acrylamide]
light flux ([1]; 10 μM): 1201.92 ± 29.95
Nucleus area (%) ([1]; 10 μM): 112.61 ± 7.78%
Mitochondrial transmembrane potential ([1]; 10 μM): 112.68 ± 1.46
